How the values were obtained:
[1] = tested on: brain phospholipids; assay: Brain phospholipid levels in gerbils given UMP diet and/or PUFA by gavage; assay type: in vivo, gerbil; set-up: PC / PE / PS / PI: unit not given here
Protocol: Control standard diet (Table 4) consisted of Teklad Global 16% protein rodent diet (Harlan Teklad, Madison, Wis.), which contained 0.1% choline chloride (CC), corresponding to a daily dose of 50 mg/kg/day. UMP was provided as 0.5% UMP·2Na^+ weight/weight, added to the control diet, also prepared by Harlan Teklad, corresponding to 240 mg/kg/day UMP. DHA was administered as 300 mg/kg/day in 200 microliter (mcL)/day 5% Arabic Gum solution, while groups not receiving DHA were administered vehicle (5% Arabic Gum) alone. DHA was provided by Nu-Chek Prep (Elysian, MN) and UMP by Numico (Wagenigen, NL).
Gerbils were anesthetized with ketamine and xylazine (80 and 10 mg/kg bwt, i.p.) and sacrificed by immersing the head into liquid nitrogen for 2 min, followed by decapitation. Brains were immediately and quickly (30 seconds) removed using a bone rongeur and stored at −80° C.
Frozen brain hemispheres were weighed and homogenized in 100 volumes of ice-cold deionized water using a tissue degrader (Polytron PT 10-35, Kinematica AG, Switzerland), then analyzed as described in Example 1.
Protein in whole brain homogenate sample was measured for using bicinchoninic acid reagent (Perkin Elmer, Norwalk, Conn., USA). DNA was measured by measuring 460 nm emission of samples on a fluorometer in the presence of bisbenzimidizole, a fluorescent dye known as Hoechst H 33258 (American Hoechst Corporation), which has an excitation maximum at 356 nm and an emission maximum of 458 when bound to DNA.
Male gerbils weighing 80-100 g were divided into 4 groups of 8 gerbils and administered the supplements depicted in Table 1:
Adult gerbils were administered control standard diet (Table 4) with our without 0.5% UMP and/or 300 mg/kg/day DHA, EPA, or AA. Groups not receiving DHA were administered vehicle (5% Arabic Gum) alone.

[2] = tested on: hippocampal dendritic spines; assay: Hippocampal dendritic spine numbers in pups of treated pregnant and nursing mothers; assay type: in vivo; details: rat pups, mothers treated 10 days before parturition and 20 days while nursing
From the text: In another study, pregnant rats were allowed to consume ad libitum, for 10 days before parturition and 20 days while nursing, either a choline-containing control diet or this diet supplemented with uridine as UMP; half of each group also received DHA or its diluent daily, by gavage. Pups were then sacrificed and brain slices were examined to determine numbers of hippocampal dendritic spines.

[3] = gerbil brain, 3 weeks, 0.5% UMP and/or 300 mg/kg/day PUFA, Table 6
[4] = gerbil brain, 4 weeks, normalized to DNA levels, mean +/- SEM
[5] = gerbil brain, 4 weeks, normalized to protein levels, mean +/- SEM
[6] = gerbil, Table 5A study, vs control

In the case of `CCC=CCC=CCC=CCC=CCC=CCC=CCCC(=O)O` [DHA, 4,7,10,13,16,19-docosahexaenoic acid], the PC [1, 3] was 133 ± 6, the PE [1, 3] was 77 ± 2 and the PI [1, 3] was 18 ± 2. For the same molecule, the PS [1, 3] was 34 ± 3, the SM [1, 3] was 24 ± 2 and the “Total PL” value [1, 3] was 344 ± 16. It also gave a PC [1, 4] of 366 ± 13, a PE [1, 4] of 196 ± 18 and a PI [1, 4] of 84 ± 13. For the same molecule, the PS [1, 4] was 98 ± 7, the SM [1, 4] was 126 ± 8 and the “Total PL” value [1, 4] was 909 ± 77. The PC [1, 5] was 185 ± 12, the PE [1, 5] was 78 ± 5 and the PI [1, 5] was 32 ± 2. The PS [1, 5] was 39 ± 3, the SM [1, 5] was 56 ± 3 and the “Total PL” value [1, 5] was 392 ± 20. The “increase in levels of total phospholipids” value ([1]; gerbil brain, 4 weeks, vs control group) was 12%, the PtdCho ([1]; gerbil brain, Table 5 part A) was 185 ± 12 nmol/mg prt and the PtdEtn ([1]; gerbil brain, Table 5 part A) was 78 ± 5 nmol/mg prt. For the same molecule, the PtdIns ([1]; gerbil brain, Table 5 part A) was 32 ± 2 nmol/mg prt, the PtdSer ([1]; gerbil brain, Table 5 part A) was 39 ± 3 nmol/mg prt and the SM ([1]; gerbil brain, Table 5 part A) was 56 ± 3 nmol/mg prt. The “Total PL” value ([1]; gerbil brain, Table 5 part A) was 392 ± 20 nmol/mg prt, the “brain phospholipid levels, in words” value ([1]; gerbil, 3 weeks) was “increased phospholipid levels” and the “increase in brain level of PC” value [1, 6] was 22%. For the same molecule, the “increase in brain level of PE” value [1, 6] was 20%, the “increase in brain level of PI” value [1, 6] was 52% and the “increase in brain level of sphingomyelin” value [1, 6] was 24%. For the same molecule, the “Increase over control (%)” value [2] was 32% and the Number of spines [2] was 70.
